Where “and” joins values, the source holds several entries; their conditions need not be identical. Equal entries are not always repeated. Inconclusive results and toxic doses are left out.
Tested on: P388 leukemia ip, CD2F1 mice, survival T/C
Assay: NCI In Vivo Anticancer Drug Screen. Data for tumor model P388 Leukemia (intraperitoneal) in CD2F1 (CDF1) mice
Settings: endpoint: median survival time, higher = longer survival
In short: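 Mice carrying the transplanted tumor received test compound or vehicle. Survival was recorded in each group, and the value is the treated-group measurement divided by that of the vehicle-treated control group.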

[1] = dose: 60.0 mg/kg/injection, schedule: Q01DX005 (ip), vehicle: saline with Tween-80

Cn1c(O)c(C2=NC(C(=O)O)CS2)c(=O)n(C)c1=O (stereo unspecified)
T/C (dose: 60.0 mg/kg/injection, schedule: Q01DX005 (ip), vehicle: saline): 100 % of control
T/C (dose: 120.0 mg/kg/injection, schedule: Q01DX005 (ip), vehicle: saline): 101 % of control
T/C (dose: 240.0 mg/kg/injection, schedule: Q01DX005 (ip), vehicle: saline): 101 % of control

O=C1C=Cc2ccc(O)cc2C1=O
T/C (dose: 1.25 mg/kg/injection, schedule: Q01DX009 (ip), vehicle: saline): 100 % of control
T/C (dose: 1.25 mg/kg/injection, schedule: Q04DX003 (ip), vehicle: saline with Tween-80): 90 % of control
T/C (dose: 2.5 mg/kg/injection, schedule: Q01DX009 (ip), vehicle: saline): 110 % of control
T/C (dose: 2.5 mg/kg/injection, schedule: Q04DX003 (ip), vehicle: saline with Tween-80): 109 % of control
T/C (dose: 5.0 mg/kg/injection, schedule: Q04DX003 (ip), vehicle: saline with Tween-80): 109 % of control and 95 % of control

COCC(O)Cn1ccnc1[N+](=O)[O-] (stereo unspecified)
T/C (dose: 1.0 mg/kg/injection, schedule: Q01DX009 (ip), vehicle: saline + alcohol): 100 % of control
T/C (dose: 1.0 mg/kg/injection, schedule: Q01DX009 (ip), vehicle: saline): 104 % of control
T/C (dose: 2.0 mg/kg/injection, schedule: Q01DX009 (ip), vehicle: saline + alcohol): 98 % of control
T/C (dose: 2.0 mg/kg/injection, schedule: Q01DX009 (ip), vehicle: saline): 109 % of control
T/C (dose: 4.0 mg/kg/injection, schedule: Q01DX009 (ip), vehicle: saline): 120 % of control
T/C (dose: 8.0 mg/kg/injection, schedule: Q01DX009 (ip), vehicle: saline): 111 % of control
T/C (dose: 16.0 mg/kg/injection, schedule: Q01DX009 (ip), vehicle: saline): 108 % of control
T/C (dose: 32.0 mg/kg/injection, schedule: Q01DX009 (ip), vehicle: saline): 112 % of control
T/C (dose: 64.0 mg/kg/injection, schedule: Q01DX009 (ip), vehicle: saline + alcohol): 124 % of control
T/C (dose: 64.0 mg/kg/injection, schedule: Q01DX009 (ip), vehicle: saline): 102 % of control
T/C (dose: 128.0 mg/kg/injection, schedule: Q01DX009 (ip), vehicle: saline + alcohol): 98 % of control
T/C (dose: 128.0 mg/kg/injection, schedule: Q01DX009 (ip), vehicle: saline): 111 % of control
T/C (dose: 250.0 mg/kg/injection, schedule: Q01DX001 (ip), vehicle: saline + alcohol): 97 % of control
T/C (dose: 256.0 mg/kg/injection, schedule: Q01DX009 (ip), vehicle: saline + alcohol): 91 % of control
T/C (dose: 256.0 mg/kg/injection, schedule: Q01DX009 (ip), vehicle: saline): 111 % of control
T/C (dose: 500.0 mg/kg/injection, schedule: Q01DX001 (ip), vehicle: saline + alcohol): 100 % of control
T/C (dose: 512.0 mg/kg/injection, schedule: Q01DX009 (ip), vehicle: saline): 112 % of control
T/C (dose: 600.0 mg/kg/injection, schedule: Q01DX005 (ip), vehicle: saline): 114 % of control
T/C (dose: 1000.0 mg/kg/injection, schedule: Q01DX001 (ip), vehicle: saline + alcohol): 102 % of control
T/C (dose: 1000.0 mg/kg/injection, schedule: Q01DX005 (ip), vehicle: saline): 105 % of control
T/C (dose: 2000.0 mg/kg/injection, schedule: Q01DX001 (ip), vehicle: saline + alcohol): 66 % of control

O=C1C=CC(=O)c2nc3ccccc3nc21
T/C (dose: 1.56 mg/kg/injection, schedule: Q01DX009 (ip), vehicle: distilled water + Tween-80): 87 % of control
T/C (dose: 3.12 mg/kg/injection, schedule: Q01DX009 (ip), vehicle: distilled water + Tween-80): 103 % of control
T/C (dose: 6.25 mg/kg/injection, schedule: Q01DX009 (ip), vehicle: distilled water + Tween-80): 105 % of control and 106 % of control

COc1cccc2c1C(=O)c1c(O)c3c(c(O)c1C2=O)C[C@@](O)(/C(C)=N/NC(N)=S)C[C@@H]3OC1CC(N)C(O)C(C)O1 (stereo partly specified)
T/C (dose: 3.13 mg/kg/injection, schedule: Q04DX003 (ip), vehicle: water): 108 % of control
T/C (dose: 6.25 mg/kg/injection, schedule: Q04DX003 (ip), vehicle: water): 109 % of control
T/C (dose: 12.5 mg/kg/injection, schedule: Q04DX003 (ip), vehicle: water): 112 % of control and 117 % of control
T/C (dose: 25.0 mg/kg/injection, schedule: Q04DX003 (ip), vehicle: water): 117 % of control and 123 % of control
T/C (dose: 50.0 mg/kg/injection, schedule: Q04DX003 (ip), vehicle: water): 117 % of control and 122 % of control
T/C (dose: 200.0 mg/kg/injection, schedule: Q04DX003 (ip), vehicle: water): 155 % of control

Oc1ccccc1C1=CC=NCCN1
T/C (dose: 15.0 mg/kg/injection, schedule: Q01DX005 (ip), vehicle: saline with Tween-80): 96 % of control
T/C (dose: 30.0 mg/kg/injection, schedule: Q01DX005 (ip), vehicle: saline with Tween-80): 101 % of control
T/C [1]: 101 % of control

Oc1c(N=Nc2nn[nH]n2)ccc2ccccc12
T/C (dose: 50.0 mg/kg/injection, schedule: Q01DX005 (ip), vehicle: saline with Tween-80): 105 % of control
T/C (dose: 100.0 mg/kg/injection, schedule: Q01DX005 (ip), vehicle: saline with Tween-80): 97 % of control
T/C (dose: 200.0 mg/kg/injection, schedule: Q01DX005 (ip), vehicle: saline with Tween-80): 99 % of control

COc1ccc2nc(C#N)sc2c1
T/C [1]: 86 % of control
T/C (dose: 120.0 mg/kg/injection, schedule: Q01DX005 (ip), vehicle: saline with Tween-80): 92 % of control
T/C (dose: 240.0 mg/kg/injection, schedule: Q01DX005 (ip), vehicle: saline with Tween-80): 100 % of control

CC1([CH2][Hg][Cl])Cc2ccccc2O1 (stereo unspecified)
T/C (dose: 0.78 mg/kg/injection, schedule: Q01DX009 (ip), vehicle: saline with Tween-80): 91 % of control
T/C (dose: 1.56 mg/kg/injection, schedule: Q01DX009 (ip), vehicle: saline with Tween-80): 95 % of control
T/C (dose: 3.13 mg/kg/injection, schedule: Q01DX009 (ip), vehicle: saline with Tween-80): 86 % of control

[CH3][Sn]([CH2]c1ccccc1)([CH2]c1ccccc1)[c]1ccccc1
T/C (dose: 100.0 mg/kg/injection, schedule: Q04DX003 (ip), vehicle: saline with Tween-80): 98 % of control
T/C (dose: 200.0 mg/kg/injection, schedule: Q04DX003 (ip), vehicle: saline with Tween-80): 105 % of control
T/C (dose: 400.0 mg/kg/injection, schedule: Q04DX003 (ip), vehicle: saline with Tween-80): 100 % of control

COC(=O)c1ccc(/C=C/C(=O)c2ccc(C(=O)OC)cc2)cc1
T/C (dose: 100.0 mg/kg/injection, schedule: Q01DX001 (ip), vehicle: saline with Tween-80): 106 % of control
T/C (dose: 200.0 mg/kg/injection, schedule: Q01DX001 (ip), vehicle: saline with Tween-80): 101 % of control
T/C (dose: 400.0 mg/kg/injection, schedule: Q01DX001 (ip), vehicle: saline with Tween-80): 98 % of control

COC1=CC(=O)C(OC)=C(C2C(=O)N(C)c3ccccc32)C1=O (stereo unspecified)
T/C (dose: 7.5 mg/kg/injection, schedule: Q01DX005 (ip), vehicle: saline): 111 % of control
T/C (dose: 15.0 mg/kg/injection, schedule: Q01DX005 (ip), vehicle: saline): 121 % of control
T/C [1]: 117 % of control

CCOc1cc2cc(CCC(=O)O)c(C)cc2cn1
T/C (dose: 12.5 mg/kg/injection, schedule: Q01DX009 (ip), vehicle: distilled water + Tween-80): 101 % of control
T/C (dose: 25.0 mg/kg/injection, schedule: Q01DX009 (ip), vehicle: distilled water + Tween-80): 103 % of control
T/C (dose: 50.0 mg/kg/injection, schedule: Q01DX009 (ip), vehicle: distilled water + Tween-80): 97 % of control
T/C (dose: 100.0 mg/kg/injection, schedule: Q01DX009 (ip), vehicle: distilled water + Tween-80): 98 % of control
T/C (dose: 200.0 mg/kg/injection, schedule: Q01DX009 (ip), vehicle: distilled water + Tween-80): 107 % of control

C=CCOC1C=C(C)C(=O)O1 (stereo unspecified)
T/C (dose: 41.5 mg/kg/injection, schedule: Q01DX005 (ip), vehicle: saline with Tween-80): 100 % of control
T/C (dose: 83.0 mg/kg/injection, schedule: Q01DX005 (ip), vehicle: saline with Tween-80): 103 % of control
T/C (dose: 166.0 mg/kg/injection, schedule: Q01DX005 (ip), vehicle: saline with Tween-80): 109 % of control

Cc1ccc(C)c(C2(c3cc(C)ccc3C)CCCCCC2=O)c1
T/C (dose: 100.0 mg/kg/injection, schedule: Q01DX005 (ip), vehicle: Klucel (hydroxypropylcellulose) (HPC)): 88 % of control

C=CCC1(C(C)C(O)c2cc(OC)c(OC)c(OC)c2)CC(OC)C=CC1=O (stereo unspecified)
T/C (dose: 4.0 mg/kg/injection, schedule: Q01DX009 (ip), vehicle: olive oil, sesame oil, peanut oil): 116 % of control
T/C (dose: 8.0 mg/kg/injection, schedule: Q01DX009 (ip), vehicle: olive oil, sesame oil, peanut oil): 111 % of control
T/C (dose: 16.0 mg/kg/injection, schedule: Q01DX009 (ip), vehicle: olive oil, sesame oil, peanut oil): 111 % of control

Source: PubChem BioAssay AID330 (DTP/NCI, 2004)
